Source: US9850483B2, “Methods and systems for analysis of single cells” (The Board of Trustees of the Leland Stanford Junior …, priority 2010, dated 2017)

Test system: murine breast cancer stem cells
Assay: Clonogenic ability of murine breast cancer stem cells (colony number)
Format: cell-based
Details: short, 24 hour exposure to the inhibitor; p<0.02, t test
Description: Many of these genes have been linked to self renewal and cancer. These include the insulin growth factor binding partner IGFBP3, the HOX family members HOXA3, HOXA5, ME1S1 as well as transcription factors like ETS1, ETS2, RUNX2 and STAT3. It was tested whether the transcription factor STAT3 is a bona fide cancer stem cell regulator. STAT3 plays a role in the maintenance of both ES cells and HSCs. […] Next, when we examined immunochemistry analysis of breast tumors the STAT3 positive cells tended to be concentrated on the invasive edge of the cancer and the protein was not seen in the more differentiated-looking cells in the interior parts of tumors. Finally, there are small molecule inhibitors of STAT3. Such inhibitors can be tested in cancer stem cell models. The effect of the STAT3 inhibitor cucurbitacin on the clonogenic ability of murine breast cancer stem cells was tested.

cucurbitacin
reduction of the number of colonies: ~50%
